In brackets after ≈: the same amount, converted by molar mass.
What was measured:
HeLa cells = test: Toxicity (IC50) on HeLa cells; type: cell-based, human; conditions: for IC50: Homo sapiens, cancerous cervical epithelium HeLa cells
Procedure: (§1) The toxicities of the compounds of the invention were determined for human cancerous cervical epithelium HeLa and normal lung fibroblast WI38 cells. The toxicities of EPIs INF-55 and INF-55Cl were quantified as controls. […] TABLE 2 compares the toxicity of compounds 7-11 on HeLa cells and normal WI38 cells.

MRSA (ATCC BAA-44) = test: Synergy with oxacillin and norfloxacin and other antibiotics (colony counts); type: cell-based, S. aureus; conditions: for MICs greater than cells treated with compound alone, with norfloxacin / MICs greater than cells treated with compound alone, with oxacillin: FIGS. 35-38; for Orders of Magnitude with Norfloxacin / Orders of Magnitude with Oxacillin: increase in ability to kill MRSA versus drug or compound alone
Procedure: The synergy of compounds 1 and 7-11 with oxacillin and norfloxacin was tested against MRSA (ATCC BAA-44). An overnight culture of MRSA was first diluted to about 5×10^5 CFU/mL in TSB. Then, 1 mL of the diluted broth suspension was added to a borosilicate glass culture tube. An appropriate volume of a compound or an antibiotic drug stock was added to the broth suspension and mixed using a vortex mixer. Then an appropriate volume of an antibiotic was added to test synergy with compounds 7-11. The samples were subsequently mixed using a vortex mixer, and the samples were incubated for 18 hours at 37° C. on a rotary shaking incubator. After 18 hours, the test cultures were diluted ten-fold, 10 μL of each dilution was drip-streaked onto a TSA plate, and the samples were incubated for 18 hours at 37° C. Colony counts were then performed and the CFU/mL values were calculated.
TABLE 21 details the MIC values identified in the MRSA assay of compounds 1, 7, 8, 9, 10, 11, various antibiotics, and light.

VRE [1] = test: Resensitization to antibiotics (log reduction, TABLE 29); type: cell-based, Enterococcus faecalis
Procedure: In a 96-well microtiter plate, two-fold dilutions were made of each drug (starting with 100 μM) in 100 μL of a cell suspension in TSB. The resulting samples were incubated overnight at 37° C. on a rotary shaking incubator at 100 rpm. The samples were then visually inspected for turbidity. A 20% well volume of MTT reagent (5 mg/mL) was subsequently added, and the samples were incubated for about 20 minutes.

WI38 cells = test: Toxicity (IC50) on WI38 cells; type: cell-based; conditions: Homo sapiens, WI-38; normal lung fibroblast WI38 cells
Procedure: as §1

[2] = tested on: Klebsiella pneumoniae (CRE, ATCC BAA-1705); test: Cell killing of CRE with compounds in presence or absence of PMB (CFU/mL); type: cell-based; conditions: for PMB + Comp: PMB @ 0.2 μg/mL + Comp @ 20 µM; for Comp @ 20 µM: compound alone
Procedure: Klebsiella pneumoniae (CRE, ATCC BAA-1705) was grown in TSB overnight at 37° C. and diluted to about 5×10^5 CFU/mL using a McFarland Latex Turbidity standard (0.5). One mL of the cell suspension was transferred to a glass culture test tube. PMB was added to the cell suspension resulting in a final concentration of 200 μg/mL of PMB. The cell suspension was incubated at 37° C. on a rotary shaking incubator at 150 rpm for 4 hours. Compounds 1, 7, 8, 9, 10, and 11 were added to the cell suspension, resulting in a concentration of 20 μM for each of the compounds. The cell suspensions containing the compounds were incubated at 37° C. on a rotary shaking incubator at 150 rpm for 4 hours. Each sample was diluted tenfold to a 10^−5 dilution. Ten 10 microliters of each dilution from each sample was dripped onto a TSA plate and allowed to streak down the plate. The agar plates were incubated at 37° C. for 18-24 hours. Colony counts were performed and CFU/mL values were calculated.
The MICs of PMB and compounds 7-11 were determined against Klebsiella pneumoniae (CRE, ATCC BAA-1705). […] After the incubation with PMB, each of the compounds was added at a concentration of 20 μM, and the samples were incubated for an additional 18 hours. A sample was taken and diluted ten-fold in media. Ten microliters of each dilution was then drip-streaked onto an agar plate and incubated overnight at 37° C. Colony counts were then performed and the concentrations of cells (CFU/mL) were calculated.

[3] = tested on: Klebsiella pneumoniae (CRE, ATCC BAA-1705); test: MIC against CRE; type: cell-based; conditions: Klebsiella pneumoniae, ATCCBAA1705
Procedure: TABLE 27 details the individual MIC values of compounds 1, 7, 8, 9, 10, 11, PMB, PME, and light against CRE.
The MICs of PME and compounds 8-11 were determined against Klebsiella pneumoniae (CRE, ATCC BAA-1705). […] After the incubation with PME, the compounds were added at a concentration of 20 μM, and the samples were further incubated. At specific time points, the samples were taken and diluted ten-fold in media. Ten microliters of each dilution was then drip-streaked onto an agar plate and incubated overnight at 37° C. Colony counts were then performed and the CFU/mL were calculated.

VRE [4] = test: Resensitization to antibiotics (log reduction, TABLE 29); type: cell-based, Enterococcus faecalis; remark: listed apart in the source
A. baumannii = test: as above; type: cell-based
S. aureus (ATCC 29213) [5] = test: microbe, parasite or virus in culture; type: cell-based
Procedure: Each mixture was incubated at 37° C. on a rotary shaking incubator for about 16 hours. MTT was then added to assess the viability of the cells (at 10% well volume). […] The cells were then streaked onto a TSA plate and incubated overnight at 37° C. These steps were repeated to reach a total of 30 exposures.

MRSA = test: Resensitization to antibiotics (log reduction, TABLE 29); type: cell-based, S. aureus
S. aureus (ATCC 29213) [6] = test: MIC against drug sensitive S. aureus; type: cell-based; conditions: Staphylococcus aureus, ATCC29213; ATCC 29213; read-out: S. aureus MIC
P. aeruginosa = test: MIC against P. aeruginosa; type: cell-based; conditions: Pseudomonas aeruginosa, read-out: MIC
From the text: Only compound 1 was able to decrease the CFU/mL when used in conjunction with white light to treat P. aeruginosa.

[7] = (⅓) MIC compound + (¼) MIC Norfloxacin
[8] = (⅓) MIC compound + (½) MIC Oxacillin
[9] = (⅛) MIC compound + (1/16) MIC Norfloxacin
[10] = (⅛) MIC compound + (⅛) MIC Oxacillin
[11] = compared to compound alone, FIGS. 34, 39, 41

Brc1ccc(/N=N/c2c[nH]c3ccccc23)cc1 [Compound 8]
IC50 (HeLa cells): 31.6 µM | % Kill (MRSA (ATCC BAA-44); [7]): 99% | Surviving MRSA (MRSA (ATCC BAA-44); [7]): 1.00 × 10^−2 | % Kill (MRSA (ATCC BAA-44); [8]): 99.9% | Surviving MRSA (MRSA (ATCC BAA-44); [8]): 1.00 × 10^−3 | MICs greater than cells treated with compound alone, with norfloxacin (MRSA (ATCC BAA-44)): two-fold | MICs greater than cells treated with compound alone, with oxacillin (MRSA (ATCC BAA-44)): three-fold | Orders of Magnitude with Norfloxacin (MRSA (ATCC BAA-44)): >2 | Orders of Magnitude with Oxacillin (MRSA (ATCC BAA-44)): >3 | Log Reduction (VRE [1]; compound 7.5 μM, Norfloxacin ([…])): 4-5 | IC50 (WI38 cells): 11.7 µM | PMB + Comp [2]: None Detected | Comp @ 20 µM [2]: 6.6 × 10^8 CFU/mL | MIC [3]: > 100 µM | Log Reduction (VRE [4]; compound 7.5 μM, Tetracycline (1.5 μg/mL)): 3-4 | Log Reduction (VRE [4]; compound 7.5 μM, Vancomycin (3.5 μg/mL)): 3 | Log Reduction (A. baumannii; compound 5 μM, PME (0.05 μg/mL)): 9 | Log Reduction (A. baumannii; compound 20 μM, PMB (0.2 μg/mL)): 9 | Resistance Evolved (S. aureus (ATCC 29213) [5]): No | Log Reduction (MRSA; compound 5 μM, Norfloxacin (25 μg/mL)): 2-3 | Log Reduction (MRSA; compound 5 μM, Oxacillin (50 μg/mL)): 3-4 | MIC (S. aureus (ATCC 29213) [6]): 8 µM (≈ 2.4 µg/mL) | MIC (P. aeruginosa): > 100 µM

Clc1ccc(Oc2c(-c3ccc(Cl)cc3)[nH]c3ccccc23)cc1 [Compound 10]
IC50 (HeLa cells): 36.8 µM | toxicity to HeLa versus normal WI38 cells (HeLa cells; comparison of TABLE 2 values): killed cancerous HeLa cells at concentrations that were not toxic to normal WI38 cells | % Kill (MRSA (ATCC BAA-44); [9]): 99.99% | Surviving MRSA (MRSA (ATCC BAA-44); [9]): 1.00 × 10^−8 | % Kill (MRSA (ATCC BAA-44); [10]): 99.99% | Surviving MRSA (MRSA (ATCC BAA-44); [10]): 1.00 × 10^−8 | MICs greater than cells treated with compound alone, with norfloxacin (MRSA (ATCC BAA-44)): eight-fold | MICs greater than cells treated with compound alone, with oxacillin (MRSA (ATCC BAA-44)): eight-fold | Synergy with Norfloxacin (MRSA (ATCC BAA-44); TABLE 6): 5-log reduction | Synergy with Oxacillin (MRSA (ATCC BAA-44); TABLE 6): 4-log reduction | log reduction in the number of surviving cells (CFU/mL), co-treatment with norfloxacin (MRSA (ATCC BAA-44); [11]): ~5 log | log reduction in the number of surviving cells (CFU/mL), co-treatment with oxacillin (MRSA (ATCC BAA-44); [11]): ~4 log | Orders of Magnitude with Norfloxacin (MRSA (ATCC BAA-44)): 8 | Orders of Magnitude with Oxacillin (MRSA (ATCC BAA-44)): 8 | Log Reduction (VRE [1]; compound 2 μM, Tetracycline (1 μg/mL)): 3-4 | Log Reduction (VRE [1]; compound […], Vancomycin (3.5 μg/mL)): 4 | IC50 (WI38 cells): 54.8 µM | PMB + Comp [2]: None Detected | Comp @ 20 µM [2]: 7.9 × 10^8 CFU/mL | MIC [3]: > 100 µM | Log Reduction (VRE [4]; compound 2 μM, Dicloxacillin (10 μg/mL)): 5 | Log Reduction (VRE [4]; compound 2 μM, Norfloxacin (5 μg/mL)): 5-6 | Log Reduction (A. baumannii; compound 5 μM, PME (0.2 μg/mL)): 8 | Resistance Evolved (S. aureus (ATCC 29213) [5]): No | MIC (S. aureus (ATCC 29213) [5]; Staphylococcus aureus, ATCC29213, read-out: Final MIC Apr. 16, 2015): 16 to 32 µM (≈ 5.67 to 11.3 µg/mL) | Log Reduction (MRSA; compound 1 μM, Norfloxacin (15 μg/mL)): 5-6 | MIC (S. aureus (ATCC 29213) [6]): 32 to 64 µM (≈ 11.3 to 22.7 µg/mL) | MIC (P. aeruginosa): > 100 µM
